Data: patent US20260097139A1, “GONADOTROPIN-RELEASING HORMONE RECEPTOR (GnRHR) TARGETED THERAPEUTICS AND USES THEREOF” (Radionetics Oncology, Inc., priority 2022, published 2026)

Target: T1, human GnRH receptor (Homo sapiens, UniProt P30968)
T1 construct: expressed in transfected cells
T1 sequence (P30968 1-328): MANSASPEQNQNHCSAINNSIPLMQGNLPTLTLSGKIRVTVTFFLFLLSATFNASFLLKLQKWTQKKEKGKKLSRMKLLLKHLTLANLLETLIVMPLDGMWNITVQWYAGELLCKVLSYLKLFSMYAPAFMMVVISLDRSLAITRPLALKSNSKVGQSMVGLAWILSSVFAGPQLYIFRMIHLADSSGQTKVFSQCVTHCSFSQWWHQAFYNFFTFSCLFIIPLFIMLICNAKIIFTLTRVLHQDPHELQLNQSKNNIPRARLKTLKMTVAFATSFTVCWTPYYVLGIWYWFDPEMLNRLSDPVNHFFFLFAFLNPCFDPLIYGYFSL
Test: IP-One functional assay for GnRHR (reported as hGnRHR Binding Ki)
Type: cell-based
Conditions: incubation time 60 min; FlpIn T-Rex 293 cells expressing human GnRH receptor; read-out: hGnRHR Binding Ki 60 min
Text: General overview: GnRHR is a Gq/11-coupled receptor that mediates the action of the GnRH hormone by activating the phosphatidylinositol-calcium second messenger system. Activation of the GnRHR induces the accumulation of inositol monophosphate, a stable metabolite of IP-3, that can be characterized as a measure of agonistic activity (increase in IP-One) or antagonistic activity (blockade of IP-One accumulation) by compounds of the invention. One example of an intracellular IP-One assay used to characterize GnRHR antagonists is described below.
24 hours prior to the assay, 30,000 FlpIn T-Rex 293 Cells (ThermoFisher #R78007) stably expressing the functional human GnRH receptor upon induction with tetracycline were plated in a 96-well tissue culture-treated plate in FlpIn T-Rex 293 Growth Medium [DMEM (Corning #10-013-CM) supplemented with 10% fetal bovine serum (Gemini Bio-Products #900-208), 100 U/mL penicillin; 100 μg/mL streptomycin; 2 mM L-glutamine (Gemini Bio-Products #400-110)] and 50 ng/mL tetracycline hydrocholoride (Sigma, T7660). Cells were cultured at 37° C., 5% CO2 and 95% humidity. On the day of the assay, the growth media was discarded and the cells were treated with 50 μL of a dose response curve of GnRH (Bachem #4033013) in the presence of various concentrations of fixed compound in assay buffer [10 mM HEPES (Biopioneer Cat #C0113) pH 7.4, 1 mM CaCl2) (Fisher Scientific BP510-100), 0.5 mM MgCl2 (Sigma M8266-100G), 4.2 mM KCl (Fisher Scientific P330-500), 146 mM NaCl (Spectrum Chemical #SO155), 5.5 mM Glucose (Sigma G7528), 50 mM LiCl (Fisher Scientific L121-100), 0.1% bovine serum albumin (Fisher Scientific Cat #BP1600)] and incubated for 1 hour at 37° C. (the final concentrations of GnRH ranged from 0-250 nM and the final concentrations of the compound ranged from 0-10,000 nM). 50 μL of lysis buffer (HRTF IP-one kit, Cisbio) was added on top of the treatment to lyse the cells. The lysate was transferred to 384-well plates and IP-one detection and visualization antibodies were added and incubated for 1-24 hours at room temperature. The time-resolved fluorescent signal was read with a Tecan M1000Pro (Tecan) multiplate reader. The intracellular IP-one concentrations were calculated by regression to a standard curve and were plotted vs. the concentration of the GnRH agonists in the presence of various concentrations of antagonist and the Ks of the compounds were calculated using standard curve-fitting methods. All data manipulations were performed using GraphPad Prism v8 (GraphPad, San Diego, CA).
For some analogs, the incubation time was 2 h or 4 h, as noted in Table A.

Ki, < 10 nM:
CN(C(=O)c1ccc(Cl)c(-c2cnc(C(F)(F)F)cc2C#N)c1)c1ccccc1OCCC(=O)NCCOCCOCCOCCOCCOCCOCCOCCOCCNC(=O)CN1CCN(CC(=O)O)CCN(CC(=O)O)CCN(CC(=O)O)CC1 [Compound 2, 2,2′,2″-(10-(33-(2-(4-chloro-3-(4-cyano-6-(trifluoromethyl)pyridin-3-yl)-N-methylbenzamido)phenoxy)-2,31-dioxo-6,9,12,15,18,21,24,27-octaoxa-3,30-diazatritriacontyl)-1,4,7,10-tetraazacyclododecane-1,4,7-triyl)triacetic acid]
CN(C(=O)c1ccc(Cl)c(-c2cnc(C(F)(F)F)cc2C#N)c1)c1ccccc1OCCOCCOCCOCCOCCOCCOCCOCCOCCNC(=O)CN1CCN(CC(=O)O)CCN(CC(=O)O)CCN(CC(=O)O)CC1 [Compound 3M-In, indium(III) 2,2′,2″-(10-(29-(2-(4-chloro-3-(4-cyano-6-(trifluoromethyl)pyridin-3-yl)-N-methylbenzamido)phenoxy)-2-oxo-6,9,12,15,18,21,24,27-octaoxa-3-azanonacosyl)-1,4,7,10-tetraazacyclododecane-1,4,7-triyl)triacetate]
COc1ccccc1N(C)C(=O)c1cc(-c2cnc(C(F)(F)F)cc2C#N)c(Cl)cc1OCCOCCOCCOCCOCCOCCOCCOCCOCCNC(=O)CN1CCN(CC(=O)O)CCN(CC(=O)O)CCN(CC(=O)O)CC1 [Compound 5M-In, indium(III) 2,2′,2″-(10-(29-(5-chloro-4-(4-cyano-6-(trifluoromethyl)pyridin-3-yl)-2-((2-methoxyphenyl) (methyl)carbamoyl)phenoxy)-2-oxo-6,9,12,15,18,21,24,27-octaoxa-3-azanonacosyl)-1,4,7,10-tetraazacyclododecane-1,4,7-triyl)triacetate]
COc1ccccc1N(C)C(=O)c1cc(-c2cnc(C(F)(F)F)cc2C#N)c(Cl)cc1OCCCC(=O)NCCOCCOCCOCCOCCOCCOCCOCCOCCNC(=O)CN1CCN(CC(=O)O)CCN(CC(=O)O)CCN(CC(=O)O)CC1 [Compound 6M-In, indium(III) 2,2′,2″-(10-(34-(5-chloro-4-(4-cyano-6-(trifluoromethyl)pyridin-3-yl)-2-((2-methoxyphenyl)(methyl)carbamoyl)phenoxy)-2,31-dioxo-6,9,12,15,18,21,24,27-octaoxa-3,30-diazatetratriacontyl)-1,4,7,10-tetraazacyclododecane-1,4,7-triyl)triacetate]
Cc1cccc(OCCC(=O)NCCOCCOCCOCCOCCOCCOCCOCCOCCNC(=O)CN2CCN(CC(=O)O)CCN(CC(=O)O)CCN(CC(=O)O)CC2)c1N(C)C(=O)c1ccc(Cl)c(-c2cnc(C(F)(F)F)cc2C#N)c1 [Compound 8, 2,2′,2″-(10-(33-(2-(4-chloro-3-(4-cyano-6-(trifluoromethyl)pyridin-3-yl)-N-methylbenzamido)-3-methylphenoxy)-2,31-dioxo-6,9,12,15,18,21,24,27-octaoxa-3,30-diazatritriacontyl)-1,4,7,10-tetraazacyclododecane-1,4,7-triyl)triacetic acid]

Same assay, conditions: incubation time 2 h; FlpIn T-Rex 293 cells expressing human GnRH receptor; read-out: hGnRHR Binding Ki 2 h

Ki, < 10 nM:
COc1nc(OCCOCCOCCOCCOCCOCCOCCOCCOCCNC(=O)CN2CCN(CC(=O)O)CCN(CC(=O)O)CCN(CC(=O)O)CC2)nc(OC)c1NC(=O)c1ccc(Oc2cc3c(cc2C)CCC3(C)C)o1 [Compound 4, 2,2′,2″-(10-(29-((4,6-dimethoxy-5-(5-((3,3,6-trimethyl-2,3-dihydro-1H-inden-5-yl)oxy)furan-2-carboxamido)pyrimidin-2-yl)oxy)-2-oxo-6,9,12,15,18,21,24,27-octaoxa-3-azanonacosyl)-1,4,7,10-tetraazacyclododecane-1,4,7-triyl)triacetic acid]
CC1(C)CCN(S(=O)(=O)c2cc(-c3cnc(C(F)(F)F)cc3C#N)c(Cl)cc2OCCOCCOCCOCCOCCOCCOCCOCCOCCNC(=O)CN2CCN(CC(=O)O)CCN(CC(=O)O)CCN(CC(=O)O)CC2)c2ccccc21 [Compound 7, 2,2′,2″-(10-(29-(5-chloro-4-(4-cyano-6-(trifluoromethyl)pyridin-3-yl)-2-((4,4-dimethyl-3,4-dihydroquinolin-1(2H)-yl)sulfonyl)phenoxy)-2-oxo-6,9,12,15,18,21,24,27-octaoxa-3-azanonacosyl)-1,4,7,10-tetraazacyclododecane-1,4,7-triyl)triacetic acid]
COc1nc(SCCC(=O)NCCC[C@@H](NC(=O)CN2CCN(CC(=O)O)CCN(CC(=O)O)CCN(CC(=O)O)CC2)C(=O)O)nc(OC)c1NC(=O)c1ccc(Oc2cc3c(cc2C)CCC3(C)C)o1 [Compound 16, (R)-2,2′,2″-(10-(2-((1-carboxy-4-(3-((4,6-dimethoxy-5-(5-((3,3,6-trimethyl-2,3-dihydro-1H-inden-5-yl)oxy)furan-2-carboxamido)pyrimidin-2-yl)thio)propanamido)butyl)amino)-2-oxoethyl)-1,4,7,10-tetraazacyclododecane-1,4,7-triyl)triacetic acid]
COc1nc(SCCC(=O)NCCN(C)CCNC(=O)CN2CCN(CC(=O)O)CCN(CC(=O)O)CCN(CC(=O)O)CC2)nc(OC)c1NC(=O)c1ccc(Oc2cc3c(cc2C)CCC3(C)C)o1 [Compound 17, 2,2′,2″-(10-(2-((2-((2-(3-((4,6-dimethoxy-5-(5-((3,3,6-trimethyl-2,3-dihydro-1H-inden-5-yl)oxy)furan-2-carboxamido)pyrimidin-2-yl)thio)propanamido)ethyl)(methyl)amino)ethyl)amino)-2-oxoethyl)-1,4,7,10-tetraazacyclododecane-1,4,7-triyl)triacetic acid]
COc1nc(SCCC(=O)NCCN(C)CCNC(=O)[C@H](N)CCCNC(=O)CN2CCN(CC(=O)O)CCN(CC(=O)O)CCN(CC(=O)O)CC2)nc(OC)c1NC(=O)c1ccc(Oc2cc3c(cc2C)CCC3(C)C)o1 [Compound 19, (R)-2,2′,2″-(10-(7-amino-18-((4,6-dimethoxy-5-(5-((3,3,6-trimethyl-2,3-dihydro-1H-inden-5-yl)oxy)furan-2-carboxamido)pyrimidin-2-yl)thio)-12-methyl-2,8,16-trioxo-3,9,12,15-tetraazaoctadecyl)-1,4,7,10-tetraazacyclododecane-1,4,7-triyl)triacetic acid]
